Source: patent US12371676B2, “Circularly permutated haloalkane transferase fusion molecules” (MAX-PLANCK-GESELLSCHAFT ZUR FÖRDERUNG DER WISSENSCHAFTEN E. …, priority 2019, dated 2025)
No end group written: not given here.

Key:
[1] = target: T1, HaloTag7D106A (Rhodococcus rhodochrous, UniProt P0A3G2, A155T/A167V/A172T/A224E/C128F/C176G/D106A/D78G/E160K/E257K/H272N/K175M/K195N/L47V/L88M/N227D/P291S/S2A/S58T/T264A/Y273L/Y87F); experiment: Fluorescence intensity based binding assay of fluorogenic HaloTag ligands; settings: 25 nM fluorogenic dye
T1 construct: made in house
Protocol: FIG. 3 Affinities of fluorogenic HaloTag™ ligands to HaloTag7D106A: The catalytically dead variant HaloTag7D106A was titrated against 3 different fluorogenic HaloTag™ ligands at 25 nM in a fluorescence intensity based binding assay (Halo-Siliconrhodamine, Halo-Janelia Fluor 646 and Halo-Janelia Fluor 635). Structures of the fluorogenic ligands are shown in each graph. Data were fitted to a one-site binding model and derived Kd values are shown in the graph. Due to the low affinity of the fluorogenic substrates, data points at […] were extrapolated based on fully labelled Halo Tag™ 7 (resembling complete binding) to improve fitting. Data points at 1 nM correspond to values without any protein added, but were placed at low concentrations to appear on the logarithmic scale. All experiments were performed in triplicates, error bars and annotated uncertainties represent standard deviations.
(§1) The inventors decided to perform the experiment with some representative fluorescent HaloTag™ substrates. An exchange of the aspartate106 residue in the active site by an alanine, removes the nucleophile responsible for the self labeling reaction and eliminates the catalytic activity of the protein. Catalytically dead mutants of HaloTag™ 7 (HaloTag™ 7D106A) and cpHaloΔ9mer (cpHalo_9merD106A) were generated to measure substrate affinities without displacement of the equilibrium by the enzymatic reaction.
(§2) Affinities for the different fluorescent substrates towards HaloTag™ 7D106A were determined in an FP binding assay (FIG. 2), while affinities of fluorogenic silcon-rhodamine derived substrates were measured by a fluorescence intensity based binding assay (FIG. 3), since binding of the fluorogenic ligands by HaloTag™ 7 engenders a strong increase of fluorescence. In both cases Halo Tag7D106A concentrations ranging from 0 μM to 100 μM were titrated against 25 nM of dye. […] The observed affinities are in agreement with labelling kinetics recorded with different substrates (data not shown). […]

[2] = target: T1, HaloTag7D106A; experiment: FP binding assay of fluorescent HaloTag ligands
Protocol: FIG. 2 Affinities of fluorescent Halo Tag™ ligands to HaloTag7D106A: The catalytically dead variant HaloTag7D106A was titrated against 5 different fluorescent HaloTag™ ligands at 25 nM in an FP binding assay (Halo-carbopyronine, Halo-TMR, Halo-TMR-azetidine, Halo-Oregon Green™, Halo Alexa Fluor™ 488). Structures of the fluorescent ligands are shown in each graph. Data points at 0.1 nM and 1 nM correspond to values without any protein added, but were placed at low concentrations to appear on the logarithmic scale. All experiments were performed in triplicates, error bars and annotated uncertainties represent standard deviations.
as §1
Affinities for the different fluorescent substrates towards HaloTag™ 7D106A were determined in an FP binding assay (FIG. 2), while affinities of fluorogenic silcon-rhodamine derived substrates were measured by a fluorescence intensity based binding assay (FIG. 3), since binding of the fluorogenic ligands by HaloTag™ 7 engenders a strong increase of fluorescence. In both cases Halo Tag7D106A concentrations ranging from 0 μM to 100 μM were titrated against 25 nM of dye. […] The observed affinities are in agreement with labelling kinetics recorded with different substrates (data not shown). In general, fluorogenic substrates have lower affinities to HaloTag7D106A than non-fluorogenic substrates, except for Halo-Alexa Fluor™ 488 that features an affinity in the same range. Additionally, within the Silicon rhodamine derivatives the presence of an azetidine or 3-fluoroazetidine moiety has an influence on the binding affinity which is more pronounced compared to the rhodamine structure. Affinities of fluorescent HaloTag™ ligands presenting the best affinities for HaloTag™ 7 were tested with cpHaloΔ9merD106A in an FP binding assay and results were compared to the measurements with HaloTag7D106A (FIG. 4, table 1).

[3] = target: T2, cpHaloΔ9mer (Rhodococcus rhodochrous, UniProt P0A3G2, C128F/D78G/L47V/L88M/S58T/Y87F); experiment: Background labelling of cpHaloΔ9mer by in gel fluorescence; format: biochemical; settings: cpHaloΔ9mer 1 μM, 2 μM fluorescent ligand, 37° C.
T2 construct: made in house
Protocol: FIG. 5 Background labeling of cpHaloΔ9mer: Background labeling of cpHaloΔ9mer (1 μM) in presence of 2 μM fluorescent ligands (at 37° C.) was determined via in gel fluorescence measurements. Samples were denatured and analysed via SDS-PAGE followed by in gel fluorescence scanning (top; gel is represented in false colors to highlight dim bands). Intensities were normalized to Halo Tag™ 7 labeled with the respective fluorophore (bottom).
A well performing protein complementation assay requires a low background. The inventors thus measured the extent of background labelling of cpHaloΔ9mer with different fluorophores (Halo-TMR, Halo-CPY and Halo-SiR). Therefore, cpHaloΔ9mer was incubated with an excess of the different fluorescent ligands.
The labelling efficiency at 37° C. and at different time points was determined via in gel fluorescence measurements (FIG. 5). […] These findings are in accordance to fluorescent ligand affinities (FIG. 4). Indeed, Halo-CPY has the highest affinity to cpHaloΔ9mer and already presents some affinity for the ligand at 2 μM engendering a labelling which still remains marginal considering the experimental setup.

[4] = target: cpHaloΔ9merD106A (Rhodococcus rhodochrous, UniProt P0A3G2, A167V/A172T/A224E/A292T/C128F/C176G/D106A/D78G/E160K/E257K, form not given/H272N/K175M/K195N/L47V/L88M/N227D/P291S/S58T/T264A/Y273L/Y87F); experiment: FP binding assay of fluorescent HaloTag ligands; settings: 25 nM dye
Protocol: FIG. 4 Comparison of HaloTag™ 7D106A and cpHaloΔ9merD106A fluorescent substrate binding: The catalytically dead variant […] (blue) was titrated against 3 different fluorescent Halo Tag™ ligands at 25 nM in an FP binding assay (Halo-TMR, Halo-TMR-azetidine and Halo-carbopyronine). Structures of the respective fluorescent ligands are shown above each graph. Data were fitted to a one-site binding model and derived Kd values are shown in the graphs. Data points at 0.01 nM and 0.1 nM correspond to values without any protein added, but were placed at low concentrations to appear on the logarithmic scale. Data were compared to HaloTag™ 7D106A binding of the same fluorophores (red). Differences in binding affinity are indicated by the relative fold change of Kd values. All experiments were performed in triplicate, error bars represent standard deviations.
as §1, §2

[5] = physchem; settings: pH 7.3

T2 sequence (P0A3G2 other isoform, or with tags, fused parts or gaps L47V/S58T/D78G/Y87F/L88M/C128F): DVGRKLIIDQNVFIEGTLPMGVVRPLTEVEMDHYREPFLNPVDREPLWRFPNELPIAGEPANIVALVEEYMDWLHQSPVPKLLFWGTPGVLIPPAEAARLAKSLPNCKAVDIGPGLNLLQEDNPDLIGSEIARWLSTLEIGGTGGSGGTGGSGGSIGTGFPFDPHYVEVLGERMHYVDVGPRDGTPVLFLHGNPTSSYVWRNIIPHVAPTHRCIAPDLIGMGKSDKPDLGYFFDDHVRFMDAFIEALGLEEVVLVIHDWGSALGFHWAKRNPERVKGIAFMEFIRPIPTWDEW
T1 sequence (P0A3G2 other isoform, or with tags, fused parts or gaps with the stated changes): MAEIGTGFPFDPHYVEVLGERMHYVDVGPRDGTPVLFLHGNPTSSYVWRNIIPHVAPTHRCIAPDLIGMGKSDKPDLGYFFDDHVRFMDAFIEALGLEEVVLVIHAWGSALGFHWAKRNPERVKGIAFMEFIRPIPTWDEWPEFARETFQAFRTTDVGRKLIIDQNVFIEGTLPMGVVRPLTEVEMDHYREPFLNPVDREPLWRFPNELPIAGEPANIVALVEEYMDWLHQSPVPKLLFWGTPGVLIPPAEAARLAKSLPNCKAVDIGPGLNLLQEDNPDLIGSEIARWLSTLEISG
Sequence of cpHaloΔ9merD106A (P0A3G2 other isoform, or with tags, fused parts or gaps with the stated changes, form open): as the sequence (P0A3G2 other isoform, or with tags, fused parts or gaps L47V/S58T/D78G/Y87F/L88M/C128F) above, with D258A counted along it

Compound | Kd [1] | Kd [2] | background labelling of cpHaloΔ9mer [3] | Kd [4] | also measured
C[Si]1(C)C2=CC(=[N+]3CC(F)C3)C=CC2=C(c2cc(C(=O)NCCOCCOCCCCCCCl)ccc2C(=O)O)c2ccc(N3CC(F)C3)cc21 (stereo not drawn) [1-(10-(2-carboxy-5-((2-(2-((6-chlorohexyl)oxy)ethoxy)ethyl)carbamoyl)phenyl)-7-(3-fluoroazetidin-1-yl)-5,5-dimethyldibenzo[b,e]silin-3(5H)-ylidene)-3-fluoroazetidin-1-ium] | 172 µM |  |  |  | 
N=c1ccc2c(-c3cc(C(=O)NCCOCCOCCCCCCCl)ccc3C(=O)O)c3ccc(N)c(S(=O)(=O)O)c3oc-2c1S(=O)(=O)O [Halo-Alexa Fluor 488, 6-amino-9-(2-carboxy-5-((2-(2-((6-chlorohexyl)oxy)ethoxy)ethyl)carbamoyl)phenyl)-3-iminio-3H-xanthene-4,5-disulfonate] |  |  |  |  | Kd ([2]; HaloTag7D106A, FP binding assay, 25 nM dye, one-site binding model, read-out: Kd): 94 µM
O=C(NCCOCCOCCCCCCCl)c1ccc(C(=O)O)c(-c2c3cc(F)c(=O)cc-3oc3cc(O)c(F)cc23)c1 [Halo-Oregon Green, 4-((2-(2-((6-chlorohexyl)oxy)ethoxy)ethyl)carbamoyl)-2-(2,7-difluoro-6-hydroxy-3-oxo-3H-xanthen-9-yl)benzoic acid] |  | 39.6 µM |  |  | 
CN(C)c1ccc2c(c1)C(C)(C)C1=CC(=[N+](C)C)C=CC1=C2c1cc(C(=O)NCCOCCOCCCCCCCl)ccc1C(=O)[O-] [Halo-carbopyronine, N-(10-(2-carboxy-5-((2-(2-((6-chlorohexyl)oxy)ethoxy)ethyl)carbamoyl)phenyl)-7-(dimethylamino)-9,9-dimethylanthracen-2(9H)-ylidene)-N-methylmethanaminium] |  | 0.622 µM | slightly stronger background labelling | 90.5 µM | 
CN(C)c1ccc2c(c1)[Si](C)(C)C1=CC(=[N+](C)C)C=CC1=C2c1cc(C(=O)NCCOCCOCCCCCCCl)ccc1C(=O)O [Halo-silicon-rhodamine, N-(10-(2-carboxy-5-((2-(2-((6-chlorohexyl)oxy)ethoxy)ethyl)carbamoyl)phenyl)-7-(dimethylamino)-5,5-dimethyldibenzo[b,e]silin-3(5H)-ylidene)-N-methylmethanaminium] | 22.7 µM |  | Very low background labelling |  | 
C[Si]1(C)C2=CC(=[N+]3CCC3)C=CC2=C(c2cc(C(=O)NCCOCCOCCCCCCCl)ccc2C(=O)O)c2ccc(N3CCC3)cc21 [Halo-silicon-rhodamine-azetidine (JF646), 1-(7-(azetidin-1-yl)-10-(2-carboxy-5-((2-(2-((6-chlorohexyl)oxy)ethoxy)ethyl)-carbamoyl)phenyl)-5,5-dimethyldibenzo[b,e]silin-3(5H)-ylidene)azetidin-1-ium] | 54.6 µM |  |  |  | 
CN(C)c1ccc2c(-c3cc(C(=O)NCCOCCOCCCCCCCl)ccc3C(=O)[O-])c3ccc(=[N+](C)C)cc-3oc2c1 [Halo-tetramethylrhodamine, N-(9-(2-carboxy-5-((2-(2-((6-chlorohexyl)oxy)ethoxy)ethyl)carbamoyl)phenyl)-6-(dimethylamino)-3H-xanthen-3-ylidene)-N-methylmethanaminium] |  | 6.68 µM | Very low background labelling | 115 µM | 
O=C(NCCOCCOCCCCCCCl)c1ccc(C(=O)[O-])c(-c2c3ccc(=[N+]4CCC4)cc-3oc3cc(N4CCC4)ccc23)c1 [Halo-tetramethylrhodamine-azetidine, 1-(6-(azetidin-1-yl)-9-(2-carboxy-5-((2-(2-((6-chlorohexyl)oxy)ethoxy)ethyl)carbamoyl)-phenyl)-3H-xanthen-3-ylidene)azetidin-1-ium] |  | 4.4 µM |  | 227 µM | 
ARETFQAFR [9mer peptide] |  |  |  |  | solubility [5]: ~30 mM
